In patent publication US20210009564A1, “CALPAIN MODULATORS AND THERAPEUTIC USES THEREOF” (BLADE THERAPERTICS, INC., priority 2018, published 2021):

Legend:
Human Calpain 1/NS1 = target: T1, Human Calpain 1/NS1 (Homo sapiens, UniProt P07384); experiment: Calpain inhibition, continuous fluorescence (FRET substrate) assay, calpain 1; format: biochemical; settings: SensoLyte 520 FRET substrate, 25C
T1 sequence (P07384 1-714): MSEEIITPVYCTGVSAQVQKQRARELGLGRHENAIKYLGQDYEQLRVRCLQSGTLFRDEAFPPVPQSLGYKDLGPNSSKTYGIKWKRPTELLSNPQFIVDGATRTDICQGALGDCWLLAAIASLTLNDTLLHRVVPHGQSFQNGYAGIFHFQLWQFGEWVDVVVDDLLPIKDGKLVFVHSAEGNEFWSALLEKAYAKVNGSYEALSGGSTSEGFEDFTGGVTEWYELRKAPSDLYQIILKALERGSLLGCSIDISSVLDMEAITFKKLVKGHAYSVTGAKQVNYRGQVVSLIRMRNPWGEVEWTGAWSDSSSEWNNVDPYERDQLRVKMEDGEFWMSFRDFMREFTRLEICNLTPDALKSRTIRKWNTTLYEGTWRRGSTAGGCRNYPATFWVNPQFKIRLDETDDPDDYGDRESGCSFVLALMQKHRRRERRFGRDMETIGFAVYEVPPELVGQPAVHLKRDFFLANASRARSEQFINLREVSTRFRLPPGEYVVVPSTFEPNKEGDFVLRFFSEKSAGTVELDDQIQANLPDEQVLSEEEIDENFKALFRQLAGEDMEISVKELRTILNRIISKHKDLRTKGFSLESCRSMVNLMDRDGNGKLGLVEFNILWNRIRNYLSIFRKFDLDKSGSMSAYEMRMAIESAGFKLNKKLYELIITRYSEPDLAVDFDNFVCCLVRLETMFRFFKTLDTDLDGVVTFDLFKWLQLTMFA
T1 sequence (P04632 1-268 partner): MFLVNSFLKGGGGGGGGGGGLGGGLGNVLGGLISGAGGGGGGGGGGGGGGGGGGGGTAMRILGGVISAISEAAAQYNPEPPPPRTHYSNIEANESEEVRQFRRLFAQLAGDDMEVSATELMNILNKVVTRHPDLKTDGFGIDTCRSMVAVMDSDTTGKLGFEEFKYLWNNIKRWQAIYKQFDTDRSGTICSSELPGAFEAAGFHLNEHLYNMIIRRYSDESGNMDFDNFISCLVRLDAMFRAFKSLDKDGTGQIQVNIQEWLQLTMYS
Method in brief: (§1)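 Calpains preincubated with serially diluted inhibitors at 25 °C in 50 mM Tris pH 7.5, 100 mM NaCl, 1 mM DTT; CaCl2 plus 5-FAM/QXL 520 FRET substrate started the reaction. Fluorescence (490/520 nm) read 10 min; rates from 1-5 min slopes, IC50 from 4-parameter logistic fit.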

Human Calpain 2/NS1 = target: T2, Human Calpain 2/NS1 (Homo sapiens, UniProt P17655); experiment: Calpain inhibition, continuous fluorescence (FRET substrate) assay, calpain 2; format: biochemical; settings: SensoLyte 520 FRET substrate, 25C
T2 sequence (P17655 1-700): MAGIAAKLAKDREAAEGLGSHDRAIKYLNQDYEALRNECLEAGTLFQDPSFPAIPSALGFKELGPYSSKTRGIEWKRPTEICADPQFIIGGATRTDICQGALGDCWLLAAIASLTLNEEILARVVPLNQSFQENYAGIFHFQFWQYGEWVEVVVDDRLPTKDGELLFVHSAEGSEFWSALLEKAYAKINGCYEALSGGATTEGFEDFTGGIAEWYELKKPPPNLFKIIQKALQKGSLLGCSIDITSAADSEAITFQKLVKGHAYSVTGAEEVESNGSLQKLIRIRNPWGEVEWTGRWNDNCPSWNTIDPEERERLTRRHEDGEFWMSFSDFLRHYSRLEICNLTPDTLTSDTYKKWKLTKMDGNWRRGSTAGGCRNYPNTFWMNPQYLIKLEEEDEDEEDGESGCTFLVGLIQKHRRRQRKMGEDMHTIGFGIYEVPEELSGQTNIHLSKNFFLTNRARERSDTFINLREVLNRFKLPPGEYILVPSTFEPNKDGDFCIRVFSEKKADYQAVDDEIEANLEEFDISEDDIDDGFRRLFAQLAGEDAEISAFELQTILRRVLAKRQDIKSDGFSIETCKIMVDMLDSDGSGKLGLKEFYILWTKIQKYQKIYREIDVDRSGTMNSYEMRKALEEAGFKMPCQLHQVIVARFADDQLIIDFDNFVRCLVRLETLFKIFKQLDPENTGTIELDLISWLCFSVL
T2 sequence (P04632 1-268 partner): T1 sequence (P04632 1-268 partner)
Method in brief: as §1

Human Calpain 9/NS1 = target: T3, Human Calpain 9/NS1 (Homo sapiens, UniProt O14815); experiment: Calpain inhibition, continuous fluorescence (FRET substrate) assay, calpain 9; format: biochemical; settings: SensoLyte 520 FRET substrate, 25C
T3 sequence (O14815 1-690): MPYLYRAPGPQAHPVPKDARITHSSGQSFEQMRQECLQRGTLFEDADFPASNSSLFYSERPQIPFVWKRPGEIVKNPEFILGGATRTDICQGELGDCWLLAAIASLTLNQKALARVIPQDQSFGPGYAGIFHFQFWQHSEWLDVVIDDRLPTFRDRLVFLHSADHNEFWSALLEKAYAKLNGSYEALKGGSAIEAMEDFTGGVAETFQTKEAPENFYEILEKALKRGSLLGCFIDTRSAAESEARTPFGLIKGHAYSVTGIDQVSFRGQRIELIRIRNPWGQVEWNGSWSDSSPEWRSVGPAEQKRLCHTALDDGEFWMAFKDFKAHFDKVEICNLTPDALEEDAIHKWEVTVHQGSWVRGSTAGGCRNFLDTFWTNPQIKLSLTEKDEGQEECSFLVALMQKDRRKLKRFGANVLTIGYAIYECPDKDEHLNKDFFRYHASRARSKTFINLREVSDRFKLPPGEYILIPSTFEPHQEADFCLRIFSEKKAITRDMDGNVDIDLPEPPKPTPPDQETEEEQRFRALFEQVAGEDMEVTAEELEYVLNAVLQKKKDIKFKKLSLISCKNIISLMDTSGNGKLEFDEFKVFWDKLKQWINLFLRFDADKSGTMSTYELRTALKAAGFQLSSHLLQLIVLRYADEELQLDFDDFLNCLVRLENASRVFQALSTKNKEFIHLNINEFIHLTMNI
T3 sequence (P04632 1-268 partner): T1 sequence (P04632 1-268 partner)
Method in brief: as §1

[1] = tested on: Calpain activity in SH-SY5Y cells; experiment: SH-SY5Y spectrin breakdown product (SBDP-150) western blot assay; format: cell-based; settings: Homo sapiens; SH-SY5Y cells, 25 uM A23187, SBDP-150 western blot; read-out: SH-SY5Y Spectrin IC50
[2] = tested on: Calpain activity in SH-SY5Y cells; experiment: SH-SY5Y Suc-LLVY-AMC fluorescence assay; format: cell-based; settings: Homo sapiens; SH-SY5Y cells, 100 uM Suc-LLVY-AMC; read-out: SH-SY5Y + AMC IC50

IC50 (Human Calpain 1/NS1) [µM] | IC50 (Human Calpain 2/NS1) [µM] | IC50 (Human Calpain 9/NS1) [µM] | IC50 [1] [µM] | IC50 [2] [µM] | SMILES
< 3 | < 3 | < 3 | 10 to 25 | < 10 | Cc1nc(-c2ccccc2F)c(C(=O)NC(Cc2cccc(F)c2)C(=O)C(N)=O)o1 (stereo not drawn) [Compound 87, N-(4-AMINO-1-(3-FLUOROPHENYL)-3,4-DIOXOBUTAN-2-YL)-4-(2-FLUOROPHENYL)-2-METHYLOXAZOLE-5-CARBOXAMIDE]
< 3 | < 3 | < 3 | < 10 | < 10 | NC(=O)C(=O)C(Cc1ccccc1)NC(=O)c1cn(C(F)F)nc1-c1cccc2scnc12 (stereo not drawn) [Compound 70, N-(4-AMINO-3,4-DIOXO-1-PHENYLBUTAN-2-YL)-3-(BENZO[D]THIAZOL-4-YL)-1-(DIFLUOROMETHYL)-1H-PYRAZOLE-4-CARBOXAMIDE]
< 3 | < 3 | < 3 | 10 to 25 | > 25 | Cn1cc(C(=O)NC(Cc2ccccc2)C(=O)C(N)=O)c(-n2cnc3ccc(F)cc32)n1 (stereo not drawn) [Compound 47, N-(4-AMINO-3,4-DIOXO-1-PHENYLBUTAN-2-YL)-3-(6-FLUORO-1H-BENZO[D]IMIDAZOL-1-YL)-1-METHYL-1H-PYRAZOLE-4-CARBOXAMIDE]
< 3 | < 3 | < 3 | > 25 | > 25 | Cn1cc(C(=O)NC(Cc2ccccc2)C(=O)C(N)=O)c(-c2ccc3cccnc3c2)n1 (stereo not drawn) [Compound 1, N-(4-AMINO-3,4-DIOXO-1-PHENYLBUTAN-2-YL)-1-METHYL-3-(QUINOLIN-7-YL)-1H-PYRAZOLE-4-CARBOXAMIDE]
< 3 | < 3 | < 3 | < 10 | < 10 | Cc1occc1-c1nsnc1C(=O)NC(Cc1ccccc1)C(=O)C(N)=O (stereo not drawn) [Compound 46, N-(4-AMINO-3,4-DIOXO-1-PHENYLBUTAN-2-YL)-4-(2-METHYLFURAN-3-YL)-1,2,5-THIADIAZOLE-3-CARBOXAMIDE]
< 3 | < 3 | < 3 | < 10 | < 10 | COC(=O)C(=O)C(Cc1ccccc1)NC(=O)c1nsnc1-c1ccccc1 (stereo not drawn) [Compound 38, METHYL 2-OXO-4-PHENYL-3-(4-PHENYL-1,2,5-THIADIAZOLE-3-CARBOXAMIDO)BUTANOATE]
< 3 | < 3 | < 3 | < 10 | < 10 | Cn1cc(C(=O)NC(Cc2ccccc2)C(=O)C(N)=O)c(-c2cccc3ncoc23)n1 (stereo not drawn) [Compound 31, N-(4-AMINO-3,4-DIOXO-1-PHENYLBUTAN-2-YL)-3-(BENZO[D]OXAZOL-7-YL)-1-METHYL-1H-PYRAZOLE-4-CARBOXAMIDE]
< 3 | < 3 | < 3 | 10 to 25 | > 25 | Cn1cc(C(=O)NC(Cc2ccccc2)C(=O)C(N)=O)c(-n2cnc3ccccc32)n1 (stereo not drawn) [Compound 9, N-(4-AMINO-3,4-DIOXO-1-PHENYLBUTAN-2-YL)-3-(1H-BENZO[D]IMIDAZOL-1-YL)-1-METHYL-1H-PYRAZOLE-4-CARBOXAMIDE]
< 3 | < 3 | < 3 | 10 to 25 | < 10 | Cc1nc(-c2ccoc2C)c(C(=O)NC(Cc2ccccc2)C(=O)C(N)=O)o1 (stereo not drawn) [Compound 84, N-(4-AMINO-3,4-DIOXO-1-PHENYLBUTAN-2-YL)-2-METHYL-4-(2-METHYLFURAN-3-YL)OXAZOLE-5-CARBOXAMIDE]
< 3 | < 3 | < 3 | > 25 | < 10 | Cn1cc(C(=O)NC(Cc2ccccc2)C(=O)C(=O)O)c(-c2ccccc2F)n1 (stereo not drawn) [Compound 65, 3-(3-(2-FLUOROPHENYL)-1-METHYL-1H-PYRAZOLE-4-CARBOXAMIDO)-2-OXO-4-PHENYLBUTANOIC ACID]
< 3 | < 3 | < 3 | 10 to 25 | > 25 | NC(=O)C(=O)C(Cc1ccccc1)NC(=O)c1nsnc1-c1coc(Cl)c1 (stereo not drawn) [Compound 52, N-(4-AMINO-3,4-DIOXO-1-PHENYLBUTAN-2-YL)-4-(5-CHLOROFURAN-3-YL)-1,2,5-THIADIAZOLE-3-CARBOXAMIDE]
< 3 | < 3 | < 3 | < 10 | < 10 | Cc1nc(-c2cccc3ccccc23)c(C(=O)NC(Cc2ccccc2)C(=O)C(N)=O)o1 (stereo not drawn) [Compound 58, N-(4-AMINO-3,4-DIOXO-1-PHENYLBUTAN-2-YL)-2-METHYL-4-(NAPHTHALEN-1-YL)OXAZOLE-5-CARBOXAMIDE]
< 3 | < 3 | < 3 | < 10 | < 10 | Cc1nc(-c2ccccc2F)c(C(=O)NC(Cc2ccc(Cl)cc2)C(=O)C(N)=O)o1 (stereo not drawn) [Compound 96, N-(4-AMINO-1-(4-CHLOROPHENYL)-3,4-DIOXOBUTAN-2-YL)-4-(2-FLUOROPHENYL)-2-METHYLOXAZOLE-5-CARBOXAMIDE]
> 10 | > 10 | > 10 | > 25 | > 25 | O=C(NC(Cc1ccccc1)C(=O)c1nnn[nH]1)c1nsnc1-c1ccccc1 (stereo not drawn) [Compound 93, N-(1-OXO-3-PHENYL-1-(1H-TETRAZOL-5-YL)PROPAN-2-YL)-4-PHENYL-1,2,5-THIADIAZOLE-3-CARBOXAMIDE]
< 3 | < 3 | < 3 | < 10 | < 10 | Cc1nc(-c2ccccc2F)c(C(=O)NC(Cc2ccccc2F)C(=O)C(N)=O)o1 (stereo not drawn) [Compound 80, N-(4-AMINO-1-(2-FLUOROPHENYL)-3,4-DIOXOBUTAN-2-YL)-4-(2-FLUOROPHENYL)-2-METHYLOXAZOLE-5-CARBOXAMIDE]
